From ChEMBL document CHEMBL3885881, “DrugMatrix”

Species on record: Rattus norvegicus
Test: DrugMatrix - Regimen: Daily Repeat
Assay type: toxicity, organism-based, Sprague-Dawley
Parameters: regimen Daily Repeat, gender Male, age 6-8 weeks
Details: in vivo, po, route oral GAVAGE, vehicle .5 % CMC; for ABSOLUTE BASOPHIL / ABSOLUTE EOSINOPHIL / ABSOLUTE LYMPHOCYTE / ABSOLUTE MONOCYTE / ABSOLUTE SEGMENTED NEUTROPHIL / BASOPHIL / EOSINOPHIL / ERYTHROCYTE COUNT / HEMATOCRIT / HEMOGLOBIN / LEUKOCYTE COUNT / LYMPHOCYTE / MEAN CORPUSCULAR HEMOGLOBIN / MEAN CORPUSCULAR HEMOGLOBIN CONCENTRATION / MEAN CORPUSCULAR VOLUME / MONOCYTE / NEUTROPHIL / NUCLEATED RED BLOOD CELLS / PLATELET COUNT: tissue Blood; for ALANINE AMINOTRANSFERASE / ALBUMIN / ALKALINE PHOSPHATASE / ASPARTATE AMINOTRANSFERASE / BLOOD UREA NITROGEN / CARBON DIOXIDE / CHLORIDE / CHOLESTEROL / CREATINE PHOSPHOKINASE / CREATININE / GLUCOSE / LACTATE DEHYDROGENASE / LIPASE / PHOSPHORUS / POTASSIUM / SODIUM / TOTAL BILIRUBIN / TOTAL PROTEIN / URIC ACID: tissue Plasma
[1] = 0 mg/kg, 72 h, dose level Control, time 3 day
[2] = 0 mg/kg, 120 h, dose level Control, time 5 day
[3] = 100 mg/kg, 72 h, dose level Low, time 3 day

Structure (SMILES): CO[C@H]1/C=C/O[C@@]2(C)Oc3c(C)c(O)c4c(c3C2=O)C2=NC3(CCN(CC(C)C)CC3)NC2=C(NC(=O)/C(C)=C\C=C\[C@H](C)[C@H](O)[C@@H](C)[C@@H](O)[C@@H](C)[C@H](OC(C)=O)[C@@H]1C)C4=O [RIFABUTIN]
- ABSOLUTE BASOPHIL [1]: 0 CELLS/uL
- ABSOLUTE EOSINOPHIL [1]: 0 CELLS/uL
- ABSOLUTE LYMPHOCYTE [1]: 12269.67 CELLS/uL
- ABSOLUTE MONOCYTE [1]: 160.33 CELLS/uL
- ABSOLUTE SEGMENTED NEUTROPHIL [1]: 970 CELLS/uL
- BASOPHIL [1]: 0%
- EOSINOPHIL [1]: 0%
- ERYTHROCYTE COUNT [1]: 5.76 x10E6/uL
- HEMATOCRIT [1]: 36.57%
- HEMOGLOBIN [1]: 14.22 G/DL
- LEUKOCYTE COUNT [1]: 13.4 x10E3/uL
- LYMPHOCYTE [1]: 91.67%
- MEAN CORPUSCULAR HEMOGLOBIN [1]: 24.67 pg
- MEAN CORPUSCULAR HEMOGLOBIN CONCENTRATION [1]: 38.85 G/DL
- MEAN CORPUSCULAR VOLUME [1]: 63.52 fL
- MONOCYTE [1]: 1.17%
- NEUTROPHIL [1]: 7.17%
- NUCLEATED RED BLOOD CELLS [1]: 0.33 /100WBC
- PLATELET COUNT [1]: 1250.83 x10E3/uL
- ALANINE AMINOTRANSFERASE [1]: 49.17 u/L
- ALBUMIN [1]: 4.33 G/DL
- ALKALINE PHOSPHATASE [1]: 378.5 u/L
- ASPARTATE AMINOTRANSFERASE [1]: 82.17 u/L
- BLOOD UREA NITROGEN [1]: 15 mg/dL
- CARBON DIOXIDE [1]: 34.33 mmol/L
- CHLORIDE [1]: 99.17 MEQ/L
- CHOLESTEROL [1]: 71.17 mg/dL
- CREATINE PHOSPHOKINASE [1]: 258.67 u/L
- CREATININE [1]: 0.18 mg/dL
- GLUCOSE [1]: 142.67 mg/dL
- LACTATE DEHYDROGENASE [1]: 154.33 u/L
- LIPASE [1]: 9 u/L
- PHOSPHORUS [1]: 11.67 mg/dL
- POTASSIUM [1]: 7.13 MEQ/L
- SODIUM [1]: 142.22 MEQ/L
- TOTAL BILIRUBIN [1]: 0.18 mg/dL
- TOTAL PROTEIN [1]: 5.77 G/DL
- URIC ACID [1]: 1.55 mg/dL
- ABSOLUTE BASOPHIL [2]: 0 CELLS/uL
- ABSOLUTE EOSINOPHIL [2]: 23.33 CELLS/uL
- ABSOLUTE LYMPHOCYTE [2]: 14943.67 CELLS/uL
- ABSOLUTE MONOCYTE [2]: 32 CELLS/uL
- ABSOLUTE SEGMENTED NEUTROPHIL [2]: 1084.33 CELLS/uL
- BASOPHIL [2]: 0%
- EOSINOPHIL [2]: 0.17%
- ERYTHROCYTE COUNT [2]: 5.71 x10E6/uL
- HEMATOCRIT [2]: 35.28%
- HEMOGLOBIN [2]: 14.27 G/DL
- LEUKOCYTE COUNT [2]: 16.08 x10E3/uL
- LYMPHOCYTE [2]: 93%
- MEAN CORPUSCULAR HEMOGLOBIN [2]: 25.02 pg
- MEAN CORPUSCULAR HEMOGLOBIN CONCENTRATION [2]: 40.43 G/DL
- MEAN CORPUSCULAR VOLUME [2]: 61.82 fL
- MONOCYTE [2]: 0.17%
- NEUTROPHIL [2]: 6.67%
- NUCLEATED RED BLOOD CELLS [2]: 0.33 /100WBC
- PLATELET COUNT [2]: 1274 x10E3/uL
- ALANINE AMINOTRANSFERASE [2]: 54.17 u/L
- ALBUMIN [2]: 4.22 G/DL
- ALKALINE PHOSPHATASE [2]: 373.17 u/L
- ASPARTATE AMINOTRANSFERASE [2]: 81.83 u/L
- BLOOD UREA NITROGEN [2]: 16.67 mg/dL
- CARBON DIOXIDE [2]: 30.33 mmol/L
- CHLORIDE [2]: 99 MEQ/L
- CHOLESTEROL [2]: 71 mg/dL
- CREATINE PHOSPHOKINASE [2]: 273.5 u/L
- CREATININE [2]: 0.22 mg/dL
- GLUCOSE [2]: 141.83 mg/dL
- LACTATE DEHYDROGENASE [2]: 153.67 u/L
- LIPASE [2]: 10.33 u/L
- PHOSPHORUS [2]: 11.38 mg/dL
- POTASSIUM [2]: 7.08 MEQ/L
- SODIUM [2]: 142.75 MEQ/L
- TOTAL BILIRUBIN [2]: 0.18 mg/dL
- TOTAL PROTEIN [2]: 6.1 G/DL
- URIC ACID [2]: 1.67 mg/dL
- ABSOLUTE BASOPHIL [3]: 0 CELLS/uL
- ABSOLUTE EOSINOPHIL [3]: 245.33 CELLS/uL
- ABSOLUTE LYMPHOCYTE [3]: 18853.33 CELLS/uL
- ABSOLUTE MONOCYTE [3]: 248 CELLS/uL
- ABSOLUTE SEGMENTED NEUTROPHIL [3]: 1720 CELLS/uL
- BASOPHIL [3]: 0%
- EOSINOPHIL [3]: 1%
- ERYTHROCYTE COUNT [3]: 5.43 x10E6/uL
- HEMATOCRIT [3]: 36.1%
- HEMOGLOBIN [3]: 14.33 G/DL
- LEUKOCYTE COUNT [3]: 21.07 x10E3/uL
- LYMPHOCYTE [3]: 89.33%
- MEAN CORPUSCULAR HEMOGLOBIN [3]: 26.5 pg
- MEAN CORPUSCULAR HEMOGLOBIN CONCENTRATION [3]: 39.7 G/DL
- MEAN CORPUSCULAR VOLUME [3]: 66.67 fL
- MONOCYTE [3]: 1.33%
- NEUTROPHIL [3]: 8.33%
- NUCLEATED RED BLOOD CELLS [3]: 0.67 /100WBC
- PLATELET COUNT [3]: 1207.33 x10E3/uL
- ALANINE AMINOTRANSFERASE [3]: 65.67 u/L
- ALBUMIN [3]: 4.37 G/DL
- ALKALINE PHOSPHATASE [3]: 375 u/L
- ASPARTATE AMINOTRANSFERASE [3]: 96.33 u/L
- BLOOD UREA NITROGEN [3]: 13 mg/dL
- CARBON DIOXIDE [3]: 25.67 mmol/L
- CHLORIDE [3]: 103 MEQ/L
- CHOLESTEROL [3]: 84.33 mg/dL
- CREATINE PHOSPHOKINASE [3]: 380 u/L
- CREATININE [3]: 0.35 mg/dL
- GLUCOSE [3]: 158 mg/dL
- LACTATE DEHYDROGENASE [3]: 212.67 u/L
- LIPASE [3]: 10.67 u/L
- PHOSPHORUS [3]: 12.8 mg/dL
- POTASSIUM [3]: 6.31 MEQ/L
- SODIUM [3]: 145.97 MEQ/L
- TOTAL BILIRUBIN [3]: 0.23 mg/dL
- TOTAL PROTEIN [3]: 6.1 G/DL
- URIC ACID [3]: 1.97 mg/dL
